From patent US20200339544A1 (JOINT STOCK COMPANY "BIOCAD", priority 2017, published 2020)
Where two headings read alike, the source gives them in different places.

Experiments:
[1] = Chemical stability in simulated gastric fluid (SGF); format: physicochemical; conditions: SGF without enzymes, pH 1,4; 10 μm; 2 hours at 37° C.; substance amount remaining
Experimental: (§1) 1) Determination of chemical stability in simulated intestinal fluid, simulated gastric fluid and human blood plasma.
(§2) SGF concentrate without enzymes, pH=1,4 (Sigma Ireland, cat #01651) was used as simulated gastric fluid. Initial candidate solution (10 mM in DMSO) was diluted with a SGF working solution to a concentration of 10 μm (test solution). The test solution was incubated in a dry block thermostat for 2 hours at 37° C. SIF concentrate without enzymes, pH=6.5 (Sigma Ireland, cat #55331) was used as simulated intestinal fluid. Initial candidate solution (10 mM in DMSO) was diluted with a SIF working solution to a concentration of 10 μm (test solution). The test solution was incubated in a dry block thermostat for 2 hours at 37° C. HPLC with Agilent 1200 liquid chromatography system (Agilent, USA) was employed to determine peak areas of the compounds in test samples, said peak areas corresponding to the initial test time (prior to incubation) and the final test time (after incubation in a dry block thermostat for 2 hours at 37° C.). We used gradient elution (1 mL/min flow rate). Substance amount in % in a sample after thermostatting was determined.
(§3) The stability of the compounds was estimated.

[2] = Chemical stability in simulated intestinal fluid (SIF); format: physicochemical; conditions: SIF without enzymes, pH 6.5; 10 μm; 2 hours at 37° C.; substance amount remaining
Experimental: as §1, §2, §3

[3] = Chemical stability in human blood plasma; format: in vitro ADME; conditions: pooled human blood plasma; 10 μm; 4 hours at 37° C.; substance amount remaining
Outline: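 Percent of parent remaining was derived by comparing HPLC peak areas at time zero and after 4 h at 37 °C. Test compound was at 10 μM in human plasma pooled from ten donors, and proteins were precipitated with acetonitrile before analysis.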

[4] = system: A549 (lung adenocarcinoma, WT); assay: Antiproliferative activity on A549 cells (Alamar Blue); format: cell-based; conditions: Homo sapiens, antiproliferative test
Outline: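 Viability read by Alamar Blue fluorescence (λEx 540, λEm 590 nm) 3-5 h after dye addition, following 72 h compound treatment at 37° C in 2% FBS RPMI-1640, ≤1% DMSO. Seeding 5*10^3 cells/well, 16-18 h attachment. Four-parameter logistic model gave IC50.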

[5] = system: HCC827 (lung adenocarcinoma, SM, exon19delE746-A750); assay: Antiproliferative activity on HCC827 cells (Alamar Blue); format: cell-based; conditions: Homo sapiens, antiproliferative test
Outline: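 HCC827 cells (EGFR exon19del E746-A750), 10×10^3/well, attached 16–18 h, then exposed to compounds for 72 h at 37 °C in RPMI-1640 with 2% FBS, ≤1% DMSO. Viability by Alamar Blue fluorescence (ex 540/em 590 nm) after 3–5 h; IC50 by four-parameter logistic fit.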

[6] = system: H1975 (lung adenocarcinoma, DM, L828R/T790M); assay: Antiproliferative activity on H1975 cells (Alamar Blue); format: cell-based; conditions: for IC50: Homo sapiens, NCI-H1975, H1975 cells; for SI IC50(A549)/IC50(DM): selectivity index, A549 vs H1975 cells
Outline: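 IC50 was fitted with a four-parameter logistic model to Alamar Blue fluorescence (540/590 nm), read 3-5 h after dye addition. Before that, compounds acted on attached H1975 cells, 15*10^3 per well in 2% FBS RPMI-1640, for 72 h at 37 °C, DMSO no more than 1%.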

[7] = Enzyme stability in human liver S9 fractions; format: in vitro ADME; conditions: 0.5 mg/mL pooled human liver S9 fractions; 10 μM compound; 37° C.; pH 7.4; read-out: Stability in liver S9 fractions, Clint
Outline: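 Compound at 10 μM was incubated at 37 °C with 0.5 mg/mL pooled human liver S9, 2 mM β-NAD and 4 mM MgCl2 in 0.1 M sodium phosphate, pH 7.4, then quenched with acetonitrile and analysed chromatographically. T½ and CLint were derived from the slope of log peak area versus time.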

[8] = average values obtained in several tests, Table 16, read-out: H1975 (DM) IC50
[9] = antiproliferative test, Table 15, read-out: IC50 H1975 (DM)

| Stability in SGF, % [1] [%] | Stability in SIF, % [2] [%] | Stability in blood plasma, % [3] [%] | IC50 [4] [nM] | IC50 [5] [nM] | IC50 [6, 8] [nM] | IC50 [6, 9] [nM] | Intrinsic clearance in human liver S9 fractions at 10 µM [7] [µL/min/mg] | Compound | SI IC50(A549)/IC50(DM) [6] |
| --- | --- | --- | --- | --- | --- | --- | --- | --- | --- |
| 100.0 | 100.0 | 82.1 | 6070 | 2.3 | 44.5 | 44.5 | – | C=CC(=O)Nc1cc(Nc2cc(C(=O)c3ccccc3)ccn2)c(OC)cc1N(C)CCN(C)C [EGFR_3365_3, N-(5-((4-benzoylpyridin-2-yl)amino)-2-((2-(dimethylamino)ethyl)(methyl)amino)-4-methoxyphenyl)acrylamide] | 136.32 |
| 100.0 | 100.0 | – | 5380 | 15.3 | 35.3 | 35.3 | 0.9 | C=CC(=O)Nc1cc(Nc2cc(C(=O)c3ccc(N(C)C)cc3)ccn2)c(OC)cc1N(C)CCN(C)C.O=C(O)C(F)(F)F [EGFR_3365_4, N-(5-((4-(4-(dimethylamino)benzoyl)pyridin-2-yl)amino)-2-((2-(dimethylamino)ethyl) (methyl)amino)-4-methoxyphenyl)acrylamide 2,2,2-trifluoroacetate] | 152.17 |
| 100.0 | 100.0 | 76.3 | 15400 | 20.3 | 21.5 | 21.5 | – | C=CC(=O)Nc1cc(Nc2nccc(C(=O)c3ccccc3Br)n2)c(OC)cc1N(C)CCN(C)C [EGFR_3365_12, N-(5-((4-(2-bromobenzoyl)pyrimidin-2-yl)amino)-2-((2-(dimethylamino)ethyl) (methyl)amino)-4-methoxyphenyl)acrylamide] | 716.20 |
| 100.0 | 100.0 | 86.2 | 3640 | 15.3 | 17.1 | 17.1 | – | C=CC(=O)Nc1cc(Nc2nccc(C(=O)c3ccc(OC)cc3)n2)c(OC)cc1N(C)CCN(C)C [EGFR_3365_28, N-(2-((2-(dimethylamino)ethyl)(methyl)amino)-4-methoxy-5-((4-(4-methoxybenzoyl)pyrimidin-2-yl)amino)phenyl)acrylamide] | 213.04 |
| 98.1 | 100.0 | 79.7 | 16000 | 6.2 | 26.9 | 26.9 | – | C=CC(=O)Nc1cc(Nc2nccc(C(=O)c3ccc(OCC)cc3)n2)c(OC)cc1N(C)CCN(C)C [EGFR_3365_29, N-(2-((2-(dimethylamino)ethyl)(methyl)amino)-5-((4-(4-ethoxybenzoyl)pyrimidin-2-yl)amino)-4-methoxyphenyl) acrylamide] | 595.06 |
| 100.0 | 92.9 | – | 5540 | 2 | 16.4 | 16.4 | 1.2 | C=CC(=O)Nc1cc(Nc2nccc(C(=O)c3ccc(OCCC)cc3)n2)c(OC)cc1N(C)CCN(C)C [EGFR_3365_30, N-(2-((2-(dimethylamino)ethyl)(methyl)amino)-4-methoxy-5-((4-(4-propoxybenzoyl)pyrimidin-2-yl)amino)phenyl)acrylamide] | 337.72 |
| 100.0 | 97.2 | 93.1 | 11100 | 8.3 | 7.34 | 7.3 | – | C=CC(=O)Nc1cc(Nc2nccc(C(=O)c3ccc(OC(C)C)cc3)n2)c(OC)cc1N(C)CCN(C)C [EGFR_3365_31, N-(2-((2-(dimethylamino)ethyl)(methyl)amino)-5-((4-(4-isopropoxybenzoyl)pyrimidin-2-yl)amino)-4-methoxyphenyl) acrylamide] | 1509.19 |
| 100.0 | 100.0 | – | 11500 | 8.6 | 33.8 | 33.8 | 16.2 | C=CC(=O)Nc1cc(Nc2cc(C(=O)c3ccc(OC)cc3)ccn2)c(OC)cc1N(C)CCN(C)C [EGFR_3365_51, N-(2-((2-(dimethylamino)ethyl)(methyl)amino)-4-methoxy-5-((4-(4-methoxybenzoyl)pyridin-2-yl)amino)phenyl)acrylamide] | 340 |
| 100.0 | 100.0 | – | 10800 | 22.5 | 66.1 | 66.1 | 16.6 | C=CC(=O)Nc1cc(Nc2cc(C(=O)c3ccc(OCC)cc3)ccn2)c(OC)cc1N(C)CCN(C)C [EGFR_3365_52, N-(2-((2-(dimethylamino)ethyl)(methyl)amino)-5-((4-(4-ethoxybenzoyl)pyridin-2-yl)amino)-4-methoxyphenyl) acrylamide] | 164 |
| – | – | 98.1 | 5300 | 4.39 | 5 | 7.58 | 23.1 | C=CC(=O)Nc1cc(Nc2nccc(C(=O)c3ccc(N4CCCCC4)cc3)n2)c(OC)cc1N(C)CCN(C)C [EGFR_3365_90, N-(2-((2-(dimethylamino)ethyl)(methyl)amino)-4-methoxy-5-((4-(4-(piperidin-1-yl)benzoyl)pyrimidin-2-yl)amino)phenyl)acrylamide] | 1060 |
| – | – | 83.3 | 6900 | – | 6.65 | 6.65 | – | C=CC(=O)Nc1cc(Nc2nccc(C(=O)c3cc4ccccc4n3C)n2)c(OC)cc1N(C)CCN(C)C [EGFR_3365_94, N-(2-((2-(dimethylamino)ethyl) (methyl)amino)-4-methoxy-5-((4-(1-methyl-1H-indole-2-carbonyl)pyrimidin-2-yl)amino)phenyl)acrylamide] | 1037 |
| – | – | 82.7 | 5570 | – | 80.5 | 80.5 | 21.9 | C=CC(=O)Nc1cc(Nc2nccc(C(=O)c3ccc(OC)cc3OCCC)n2)c(OC)cc1N(C)CCN(C)C [EGFR_3365_102, N-(2-((2-(dimethylamino)ethyl)(methyl)amino)-4-methoxy-5-((4-(4-methoxy-2-propoxybenzoyl)pyrimidin-2-yl)amino)phenyl)acrylamide] | 69 |
| – | – | 98.3 | 8350 | 15.2 | 4.21 | 4.21 | 1.4 | C=CC(=O)Nc1cc(Nc2nccc(C(=O)c3ccc(N4CCC(N)CC4)cc3)n2)c(OC)cc1N(C)CCN(C)C [EGFR_3365_121, N-(5-((4-(4-(4-aminopiperidin-1-yl)benzoyl)pyrimidin-2-yl)amino)-2-((2-(dimethylamino)ethyl)(methyl)amino)-4-methoxyphenyl)acrylamide] | 1983 |
